The target of data set [1] is T1, CatC (Homo sapiens, UniProt P53634). Put plainly: E-64 inhibition of CatC activity. It is filed as biochemical. The settings on record: compared with literature ~500 μM.
For data set [2], the target named is T1, CatC. To be noted: only at high concentrations; cited from earlier work.
The next data set concerns cathepsin F. The experiment in a line: 50 mM acetate buffer pH 5 with 1 mM EDTA and 1 mM DTT. The settings on record: up to 24 hours.
A further data set has as its system cathepsin F (CatF). Put plainly: cathepsin F in 50 mM acetate buffer pH 5 with 1 mM EDTA and 1 mM DTT. To be noted: up to 24 hours.
For the next data set, the system named is cathepsin H (CatH). Put plainly: cathepsin H in 50 mM acetate buffer pH 5 with 1 mM EDTA and 1 mM DTT. The settings on record: up to 24 hours.
A further data set concerns cathepsin L (CatL). The experiment in a line: cathepsin L in 50 mM acetate buffer pH 5 with 1 mM EDTA and 1 mM DTT. To be noted: up to 8 hours.
Another data set relates to cathepsin A (CatA). Put plainly: cathepsin A. To be noted: 37°C, up to 8 hours.
Another data set concerns cathepsin C (CatC). The experiment in a line: cathepsin C. The settings on record: 37°C, up to 24 hours.
The test system of a further data set is cathepsin B (CatB). The experiment in a line: cathepsin B in 50 mM acetate buffer pH 5 with 1 mM EDTA and 1 mM DTT. To be noted: up to 8 hours.

Entries after “also recorded” stand apart in the source; their conditions may differ.

T1 sequence (P53634 25-134 limits assumed): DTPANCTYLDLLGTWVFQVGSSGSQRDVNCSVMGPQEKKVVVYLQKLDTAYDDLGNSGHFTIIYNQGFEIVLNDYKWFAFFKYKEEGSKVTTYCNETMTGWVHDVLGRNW
T1 sequence (P53634 231-394 limits assumed): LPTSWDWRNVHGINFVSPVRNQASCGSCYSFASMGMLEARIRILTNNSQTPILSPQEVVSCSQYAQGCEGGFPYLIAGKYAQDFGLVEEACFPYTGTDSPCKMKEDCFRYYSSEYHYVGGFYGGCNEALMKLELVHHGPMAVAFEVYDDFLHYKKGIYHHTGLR
T1 sequence (P53634 395-463 limits assumed): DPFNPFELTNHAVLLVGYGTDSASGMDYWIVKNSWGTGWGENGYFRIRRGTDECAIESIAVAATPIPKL

For `CC(C)C[C@H](NC(=O)[C@H]1O[C@@H]1C(=O)O)C(=O)NCCCCN=C(N)N` (relative stereo) [E-64, L-trans-Epoxysuccinyl-leucylamido(4-guanidino) butane], on CatC [1], the “E-64 inhibition of CatC activity observed by the authors” value is “activity inhibition at much-reduced concentration”. For the same molecule, the “concentration at which E-64 inhibits CatC” value on CatC [2] is ~ 500 μM.

For the molecule AKAKTDHGAEIVYK, the not cleaved result in the data set on cathepsin F and in the data set on cathepsin F (CatF) was “no proteolytic digestion” throughout. The fragment found result in the data set on cathepsin H (CatH) was “TDHGAEIVYK; also recorded: DHGAEIVYK”; with cathepsin L (CatL), “IVYK and TDHGAEIVY and HGAEIVYK and GAEIVYK and AKTDHGAEIVYK and AKAKTDHGAEIVY”; in the data set on cathepsin A (CatA), “AKAKTDHGAEIVY, 0.5h; also recorded: AKAKTDHGAEIV; also recorded: AKAKTDHGAEI; also recorded: KTDHGAEIV; also recorded: AKTDHGAEIV; also recorded: KTDHGAEI; also recorded: AKTDHGAEI”; with cathepsin C (CatC) it was “TDHGAEIVYK”.

AKAKTDHGAEIVYK (D-Asp variant): the not cleaved result in the data set with cathepsin F (CatF) is on record as “no proteolytic digestion”; in the data set on cathepsin C (CatC), “no TDHGAEIVYK after 24 h”. Further, the fragment found result with cathepsin H (CatH) was “TDHGAEIVYK”; in the data set with cathepsin L (CatL), “IVYK and AKTDHGAEIVYK and AKAKTDHGAEIVY”; with cathepsin A (CatA), “AKAKTDHGAEIVY, 0.5h; also recorded: AKAKTDHGAEIV; also recorded: AKAKTDHGAEI”.

In the case of AKAKTDHGAEIVYK (D-isoAsp variant), the figures for the not cleaved result with cathepsin F (CatF) and with cathepsin C (CatC) were “no proteolytic digestion” and “no TDHGAEIVYK after 24 h”, respectively. The fragment found result in the data set with cathepsin H (CatH) was “TDHGAEIVYK”; in the data set on cathepsin L (CatL), “IVYK and AKTDHGAEIVYK and AKAKTDHGAEIVY”; with cathepsin A (CatA) it was “AKAKTDHGAEIVY, 0.5h; also recorded: AKAKTDHGAEIV; also recorded: AKAKTDHGAEI”; in the data set on cathepsin C (CatC), “IVYK”.

As for AKAKTDHGAEIVYK (L-isoAsp variant), the fragment found entry is “TDHGAEIVYK” with cathepsin H (CatH); “AKAKTDHGAEIVY and IVYK and AKTDHGAEIVYK” in the data set on cathepsin L (CatL); “AKAKTDHGAEIVY, 0.5h; also recorded: AKAKTDHGAEIV; also recorded: AKAKTDHGAEI” in the data set on cathepsin A (CatA). For the same molecule, the not cleaved result in the data set with cathepsin C (CatC) is reported as “no TDHGAEIVYK after 24 h”.

SEMRLEKDRFSVNL: the fragment found result in the data set on cathepsin B (CatB) was “SEMRLEKDRF and SEMRLEKDR and LEKDRF and EKDRF and KDRF”; in the data set on cathepsin F (CatF), “SEMRLE; also recorded: KDRFSVNL; also recorded: SEMR, minor, longer time-points”.

Consider SEMRLEKDRFSVNL (D-Asp variant), for which, in the data set with cathepsin B (CatB), the fragment found entry is “SEMRLEKDRF; also recorded: SEMRLEKDR” and the not cleaved result is listed as “no cleavage C-terminal to isomerized Asp”.

For SEMRLEKDRFSVNL (D-isoAsp variant), in the data set on cathepsin B (CatB), the fragment found result is on record as “SEMRLEKDRF; also recorded: SEMRLEKDR” and the not cleaved result is reported as “no cleavage C-terminal to isomerized Asp”.

As for SEMRLEKDRFSVNL (L-isoAsp variant), in the data set with cathepsin B (CatB), the fragment found result is “SEMRLEKDRFS and SEMRLEKDRF and SEMRLEKDR and KDRF”; the not cleaved result was “no cleavage C-terminal to isomerized Asp”.

Source of the values: publication PMC10449060 (Analysis & sensing, 2022).
